Counter-ions that a name gives are not always drawn.
Test system: influx of neutrophils to the lung in LPS-challenged rats
Experiment: Rat LPS neutrophilia model
Assay type: in vivo
Details: intratracheal, LPS aerosol 100 ug/ml 15 min, lavage 4 hours later, in at least one of the range of conditions tested, significant p<0.05, nonsignificant p>0.05
Description: The effect of compounds on the influx of neutrophils to the lung in LPS-challenged rats is evaluated as follows. The test compound is suspended in one of the following solutions: 0.5% tween 80/PBS, 0.5% tween 80/saline, 10% EtOH/saline (with pH adjusted to 2.0, or 8.0 with HCl, or unadjusted), Saline @ pH 2.0, 6.5 or 8.0, 0.5% Tragacanth, 1% DMSO/20% Encapsin/Saline, or acidified 5% Tragacanth. The suspension process may be aided by the use of a glass homogenizer. For intratracheal administration, the animals are anesthetized with inhaled isoflurane and placed in a supine position, the trachea is intubated with a steel gavage needle (1.5 inch, 22 gauge, small ball) or a Penn-Century Microsprayer Aerosolizer (model IA-IB) and 200 ul of dosing solution is delivered. The animals are visually monitored during the recovery process, which typically occurs within two minutes. It is noted that the test compounds may be alternatively administered via the microsprayer in a dry powder blend with a suitable excipient, such as lactose.
Rats treated with compound or vehicle (15 min-24 hours pretreatment) are exposed to an LPS aerosol (100 ug/ml) for 15 min. Four hours later the rats are euthanized with pentobarbital (100 mg/kg, i.p.) and the airways are lavaged with 5 washes of 5 ml of phosphate buffered saline. The harvested cells are stained (Diffquick) and counted to determine total and differential cell data. […] Inhibition of neutrophil levels relative to no compound controls is calculated based on the differential counts.
The data is obtained as % inhibition using a particular concentration and pretreat time.

| SMILES | inhibition of neutrophilia (neutrophil levels in lung lavage relative to no compound controls) |
| --- | --- |
| CNCCNc1nc(-c2cc(C(=O)NCC3CC3)ccc2C)c2ccc(=O)n(-c3c(F)cccc3F)c2n1 [Example 4] | statistically significant inhibition |
| Cc1ccc(C(=O)NC2CC2)cc1-c1nc(N2CCC(N)CC2)nc2c1ccc(=O)n2-c1c(F)cccc1F [Example 22, 3-[2-(4-amino-1-piperidinyl)-8-(2,6-difluorophenyl)-7-oxo-7,8-dihydropyrido[2,3-d]pyrimidin-4-yl]-N-cyclopropyl-4-methylbenzamide] | statistically significant inhibition |
| Cc1ccc(C(=O)NC2CC2)cc1-c1nc(NCc2ncc[nH]2)nc2c1ccc(=O)n2-c1c(F)cccc1F [Example 23, N-cyclopropyl-3-{8-(2,6-difluorophenyl)-2-[(1H-imidazol-2-ylmethyl)amino]-7-oxo-7,8-dihydropyrido[2,3-d]pyrimidin-4-yl}-4-methylbenzamide] | statistically nonsignificant inhibition |
| Cc1ccc(C(=O)NCC2CC2)cc1-c1nc(N2CCC(N)CC2)nc2c1ccc(=O)n2-c1c(F)cccc1F [Example 27, 3-[2-(4-amino-1-piperidinyl)-8-(2,6-difluorophenyl)-7-oxo-7,8-dihydropyrido[2,3-d]pyrimidin-4-yl]-N-(cyclopropylmethyl)-4-methylbenzamide] | statistically significant inhibition |
| Cc1ccc(C(=O)NCCc2ccccc2)cc1-c1nc(NC2CC(C)(C)NC(C)(C)C2)nc2c1ccc(=O)n2-c1c(F)cccc1F [Example 28, 3-{8-(2,6-difluorophenyl)-7-oxo-2-[(2,2,6,6-tetramethyl-4-piperidinyl)amino]-7,8-dihydropyrido[2,3-d]pyrimidin-4-yl}-4-methyl-N-(2-phenylethyl)benzamide] | statistically nonsignificant inhibition |
| CNCCNc1nc(-c2cc(C(=O)NCCc3ccccc3)ccc2C)c2ccc(=O)n(-c3c(F)cccc3F)c2n1 [Example 29, 3-(8-(2,6-difluorophenyl)-2-{[2-(methylamino)ethyl]amino}-7-oxo-7,8-dihydropyrido[2,3-d]pyrimidin-4-yl)-4-methyl-N-(2-phenylethyl)benzamide] | statistically significant inhibition |
| Cc1ccc(NC(=O)c2cccc3cc[nH]c23)cc1-c1nc(NC(CO)CO)nc2c1ccc(=O)n2-c1c(F)cccc1F [Example 44, N-[3-(8-(2,6-difluorophenyl)-2-{[2-hydroxy-1-(hydroxymethyl)ethyl]amino}-7-oxo-7,8-dihydropyrido[2,3-d]pyrimidin-4-yl)-4-methylphenyl]-1H-indole-7-carboxamide trifluoroacetate] | statistically significant inhibition |
| CNCCNc1nc(-c2cc(C(=O)NC3CCCC3)ccc2C)c2ccc(=O)n(-c3c(F)cccc3F)c2n1 [Example 58, N-cyclopentyl-3-(8-(2,6-difluorophenyl)-2-{[2-(methylamino)ethyl]amino}-7-oxo-7,8-dihydropyrido[2,3-d]pyrimidin-4-yl)-4-methylbenzamide] | statistically significant inhibition |
| CNCCNc1nc(-c2cc(C(=O)NCc3ccccc3)ccc2C)c2ccc(=O)n(-c3c(F)cccc3F)c2n1 [Example 59, 3-(8-(2,6-difluorophenyl)-2-{[2-(methylamino)ethyl]amino}-7-oxo-7,8-dihydropyrido[2,3-d]pyrimidin-4-yl)-4-methyl-N-(phenylmethyl)benzamide] | statistically significant inhibition |
| CNCCNc1nc(-c2cc(C(=O)Nc3ccc(F)cc3)ccc2C)c2ccc(=O)n(-c3c(F)cccc3F)c2n1 [Example 60, 3-(8-(2,6-difluorophenyl)-2-{[2-(methylamino)ethyl]amino}-7-oxo-7,8-dihydropyrido[2,3-d]pyrimidin-4-yl)-N-(4-fluorophenyl)-4-methylbenzamide] | statistically significant inhibition |
| CNCCNc1nc(-c2cc(C(=O)Nc3nccs3)ccc2C)c2ccc(=O)n(-c3c(F)cccc3F)c2n1 [Example 61, 3-(8-(2,6-difluorophenyl)-2-{[2-(methylamino)ethyl]amino}-7-oxo-7,8-dihydropyrido[2,3-d]pyrimidin-4-yl)-4-methyl-N-1,3-thiazol-2-ylbenzamide] | statistically significant inhibition |
| Cc1ccc(C(=O)Nc2nccs2)cc1-c1nc(NC2CC(C)(C)NC(C)(C)C2)nc2c1ccc(=O)n2-c1c(F)cccc1F [Example 67, 3-{8-(2,6-difluorophenyl)-7-oxo-2-[(2,2,6,6-tetramethyl-4-piperidinyl)amino]-7,8-dihydropyrido[2,3-d]pyrimidin-4-yl}-4-methyl-N-1,3-thiazol-2-ylbenzamide] | statistically nonsignificant inhibition |
| Cc1ccc(C(=O)NC(C)C)cc1-c1nc(N2CCC(N)CC2)nc2c1ccc(=O)n2-c1c(F)cccc1F [Example 68, 3-[2-(4-amino-1-piperidinyl)-8-(2,6-difluorophenyl)-7-oxo-7,8-dihydropyrido[2,3-d]pyrimidin-4-yl]-4-methyl-N-(1-methylethyl)benzamide] | statistically significant inhibition |
| CCCNC(=O)c1ccc(C)c(-c2nc(N3CCC(N)CC3)nc3c2ccc(=O)n3-c2c(F)cccc2F)c1 [Example 69, 3-[2-(4-amino-1-piperidinyl)-8-(2,6-difluorophenyl)-7-oxo-7,8-dihydropyrido[2,3-d]pyrimidin-4-yl]-4-methyl-N-propylbenzamide] | statistically significant inhibition |
| Cc1ccc(C(=O)NC2CCCC2)cc1-c1nc(N2CCC(N)CC2)nc2c1ccc(=O)n2-c1c(F)cccc1F [Example 70, 3-[2-(4-amino-1-piperidinyl)-8-(2,6-difluorophenyl)-7-oxo-7,8-dihydropyrido[2,3-d]pyrimidin-4-yl]-N-cyclopentyl-4-methylbenzamide] | statistically nonsignificant inhibition |
| Cc1ccc(C(=O)NCc2ccccc2)cc1-c1nc(N2CCC(N)CC2)nc2c1ccc(=O)n2-c1c(F)cccc1F [Example 71, 3-[2-(4-amino-1-piperidinyl)-8-(2,6-difluorophenyl)-7-oxo-7,8-dihydropyrido[2,3-d]pyrimidin-4-yl]-4-methyl-N-(phenylmethyl)benzamide] | statistically nonsignificant inhibition |
| Cc1ccc(C(=O)Nc2ccc(F)cc2)cc1-c1nc(N2CCC(N)CC2)nc2c1ccc(=O)n2-c1c(F)cccc1F [Example 72] | statistically significant inhibition |
| Cc1ccc(C(=O)Nc2nccs2)cc1-c1nc(N2CCC(N)CC2)nc2c1ccc(=O)n2-c1c(F)cccc1F [Example 73, 3-[2-(4-amino-1-piperidinyl)-8-(2,6-difluorophenyl)-7-oxo-7,8-dihydropyrido[2,3-d]pyrimidin-4-yl]-4-methyl-N-1,3-thiazol-2-ylbenzamide] | statistically significant inhibition |
| Cc1ccc(C(=O)NC2CCCC2)cc1-c1nc(NCc2ncc[nH]2)nc2c1ccc(=O)n2-c1c(F)cccc1F [Example 76, N-cyclopentyl-3-{8-(2,6-difluorophenyl)-2-[(1H-imidazol-2-ylmethyl)amino]-7-oxo-7,8-dihydropyrido[2,3-d]pyrimidin-4-yl}-4-methylbenzamide] | statistically nonsignificant inhibition |
| Cc1ccc(C(=O)NCc2ccccc2)cc1-c1nc(NCc2ncc[nH]2)nc2c1ccc(=O)n2-c1c(F)cccc1F [Example 77, 3-{8-(2,6-difluorophenyl)-2-[(1H-imidazol-2-ylmethyl)amino]-7-oxo-7,8-dihydropyrido[2,3-d]pyrimidin-4-yl}-4-methyl-N-(phenylmethyl)benzamide] | statistically significant inhibition |
| Cc1ccc(C(=O)Nc2ccc(F)cc2)cc1-c1nc(NCCN(C)C(=O)OC(C)(C)C)nc2c1ccc(=O)n2-c1c(F)cccc1F [Example 95, 1,1-dimethylethyl (2-{[8-(2,6-difluorophenyl)-4-(5-{[(4-fluorophenyl)amino]carbonyl}-2-methylphenyl)-7-oxo-7,8-dihydropyrido[2,3-d]pyrimidin-2-yl]amino}ethyl)methylcarbamate] | statistically nonsignificant inhibition |
| Cc1ccc(C(=O)Nc2ccc(F)cc2)cc1-c1nc(N(C)CCN(C)C)nc2c1ccc(=O)n2-c1c(F)cccc1F [Example 99, 3-{8-(2,6-difluorophenyl)-2-[[2-(dimethylamino)ethyl](methyl)amino]-7-oxo-7,8-dihydropyrido[2,3-d]pyrimidin-4-yl}-N-(4-fluorphenyl)-4-methylbenzamide] | statistically nonsignificant inhibition |
